Laboratory results published in publication PMC8494430, “Development of a fluorogenic ADAMTS-7 substrate” (Journal of Enzyme Inhibition and Medicinal Chemistry, 2021).

Target: T1, ADAMTS-1 (Homo sapiens, UniProt Q9UHI8)
T1 construct: made in house
T1 sequence (Q9UHI8 253-967): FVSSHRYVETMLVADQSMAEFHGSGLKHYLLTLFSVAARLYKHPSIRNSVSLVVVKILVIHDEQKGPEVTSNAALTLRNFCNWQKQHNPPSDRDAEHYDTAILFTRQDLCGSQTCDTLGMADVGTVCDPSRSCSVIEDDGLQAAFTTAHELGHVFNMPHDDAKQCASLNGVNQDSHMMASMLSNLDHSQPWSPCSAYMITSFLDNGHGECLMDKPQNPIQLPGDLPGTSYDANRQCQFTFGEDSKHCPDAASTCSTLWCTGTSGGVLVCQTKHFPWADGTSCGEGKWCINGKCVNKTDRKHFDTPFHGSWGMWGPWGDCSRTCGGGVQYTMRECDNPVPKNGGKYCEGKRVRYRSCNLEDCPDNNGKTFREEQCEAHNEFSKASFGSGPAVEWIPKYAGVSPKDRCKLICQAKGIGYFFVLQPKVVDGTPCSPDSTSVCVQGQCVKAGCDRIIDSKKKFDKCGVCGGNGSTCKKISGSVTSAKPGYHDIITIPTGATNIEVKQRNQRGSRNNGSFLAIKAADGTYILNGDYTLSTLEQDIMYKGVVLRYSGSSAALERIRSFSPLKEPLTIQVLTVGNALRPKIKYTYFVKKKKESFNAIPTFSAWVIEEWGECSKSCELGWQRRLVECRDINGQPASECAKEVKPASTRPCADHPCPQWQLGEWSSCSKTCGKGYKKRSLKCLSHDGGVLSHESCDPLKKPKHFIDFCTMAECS
Test: Cleavage of ATS7FP7 by ADAMTS-1
Format: biochemical
Details: ADAMTS-1 10 nM, ATS7FP7 40 μM
Experimental: All enzyme assays were conducted in TNC-B buffer (50 mM Tris- HCl, pH 7.5, 150 mM NaCl, 10 mM CaCl2, and 0.02% NaN3) at 37 °C in 384 well plates (Cat. No: 784900, Greiner Bio-One, Austria). To avoid the formation of inhibitor or peptide aggregates, the detergent Brij-35 (0.05%) was added to TNC-B[13]. For inhibition studies, stock solutions of chemical compounds were prepared in dimethyl sulfoxide (DMSO) (10 mM). These were further diluted at different concentrations in TNC-B and incubated with ADAMTS-1, ADAMTS-4, ADAMTS-5, ADAMTS-7 or ADAMTS-8 (10 nM) for 1 h at 37 °C. Blank samples were prepared using buffer only and the rate of cleavage for blank reactions was subtracted from the rates measured in the presence of enzyme. Upon addition of the indicated ADAMTS-7 FRET substrates (40 µM), the fluorescence was measured immediately using a FLUOstar Omega microplate reader (BMG Labtech, Germany) with an excitation filter wavelength of 485 nm and an emission filter wavelength of 520 nm.
Supplementary Figure 6: Cleavage of ATS7FP7 by members of the ADAMTS family. A) ATS7FP7 (40 μM) was incubated either with ADAMTS-1, -4, -5, -7, or -8 (10 nM). Fluorescence was detected (λex = 485 nm, λem = 520 nm) for 8 h at 37°C and reported as relative fluorescence units (RFU). The data are presented as average ± SEM (n=3) and were fitted with a linear regression. […]

## Glu-Ala-Ala-Ala-Arg↓Ala-Glu↓Ala-Ala-Ala-Lys [ATS7FP7]
  cleavage by ADAMTS-1: neither ADAMTS-1 nor ADAMTS-8 were able to cleave ATS7FP7
